Data as given in the supplement of paper PMC10307832.

Tests used:
Experiment in all cases: relative viability (nuclei count vs DMSO), 5 days (fraction); higher = more cells survive
[1] = compound: O=C(NC1CCNCC1)c1n[nH]cc1NC(=O)c1c(Cl)cccc1Cl [AT-7519] + Cc1nc(Nc2ncc(C(=O)Nc3c(C)cccc3Cl)s2)cc(N2CCN(CCO)CC2)n1 [Dasatinib] (partner 0.075 µM)
Procedure, shortened: (§1)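 Values are medians from duplicate plates. Each reflects relative viability, defined as the nuclei count of treated wells over that of vehicle wells. Lung cancer cell lines in 1536-well plates were pin-tool dosed one day after seeding with one drug alone or with a fixed anchor-drug dose plus five library-drug doses (not always all listed) in √10 steps, then fixed, stained and imaged at 4× after 5 days.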

[2] = compound: C1=CC2=C(C=C(C(=C2N=C1)O)N=NC3=CC4=C(C=C3)C=C(C=C4)S(=O)(=O)O)S(=O)(=O)O + C[C@@H](Oc1cc(-c2cnn(C3CCNCC3)c2)cnc1N)c1c(Cl)ccc(F)c1Cl [Crizotinib] (partner 1 µM)
Procedure, shortened: as §1

[3] = compound: O=C(NC1CCNCC1)c1n[nH]cc1NC(=O)c1c(Cl)cccc1Cl [AT-7519] + CCNC(=O)c1noc(-c2cc(C(C)C)c(O)cc2O)c1-c1ccc(CN2CCOCC2)cc1 [Luminespib] (partner 0.01 µM)
Procedure, shortened: as §1

[4] = compound: O=C(NC1CCNCC1)c1n[nH]cc1NC(=O)c1c(Cl)cccc1Cl [AT-7519] + CC1(C)CCC(c2ccc(Cl)cc2)=C(CN2CCN(c3ccc(C(=O)NS(=O)(=O)c4ccc(N[C@H](CCN5CCOCC5)CSc5ccccc5)c(S(=O)(=O)C(F)(F)F)c4)cc3)CC2)C1 [Navitoclax] (partner 0.5 µM)
Procedure, shortened: as §1

| Cell Line | relative viability ([1]; first compound 0.01 µM) | relative viability ([1]; first compound 0.03162 µM) | relative viability ([1]; first compound 0.3162 µM) | relative viability ([1]; first compound 1 µM) | relative viability ([2]; first compound 0.08 µM) | relative viability ([2]; first compound 0.253 µM) | relative viability ([2]; first compound 0.8 µM) | relative viability ([2]; first compound 2.53 µM) | relative viability ([2]; first compound 8 µM) | relative viability ([3]; first compound 0.01 µM) | relative viability ([3]; first compound 0.03162 µM) | relative viability ([3]; first compound 0.3162 µM) | relative viability ([3]; first compound 1 µM) | relative viability ([4]; first compound 0.01 µM) | relative viability ([4]; first compound 0.03162 µM) | relative viability ([4]; first compound 0.3162 µM) | relative viability ([4]; first compound 1 µM) |
| --- | --- | --- | --- | --- | --- | --- | --- | --- | --- | --- | --- | --- | --- | --- | --- | --- | --- |
| HOP-62 | 0.653 | 0.699 | 0.731 | 0.626 | 1.14 | 0.725 | 0.701 | 1.09 | 1.02 | 1.02 | 0.916 | 0.993 | 0.859 | 0.824 | 0.983 | 1.01 | 0.923 |
| IA-LM | – | – | – | – | 1.16 | 0.602 | 0.822 | 0.757 | 0.9 | – | – | – | – | 0.917 | 0.865 | 0.69 | 0.435 |
| LC-2-ad | 0.555 | 0.61 | 0.328 | 0.332 | 0.534 | 0.412 | 0.462 | 0.452 | 0.411 | 1.03 | 0.892 | 1.17 | 0.501 | 0.312 | 0.487 | 0.367 | 0.214 |
| LCLC-97TM1 | 0.911 | 0.791 | 0.763 | 0.396 | – | 0.35 | – | 0.424 | 0.325 | 0.976 | 0.692 | 0.788 | 0.285 | 0.637 | 0.31 | 0.461 | 0.398 |
| LCLC-103H | 0.533 | 0.388 | 0.451 | 0.54 | 1.16 | 1.02 | 0.978 | 1.07 | 1.06 | 1.06 | 0.953 | 0.955 | 0.867 | – | – | – | – |
| LK-2 | 0.288 | 0.248 | – | 0.221 | 0.275 | 0.223 | 0.244 | 0.218 | 0.162 | 0.188 | 0.159 | – | 0.189 | 0.76 | 0.75 | 0.77 | 0.745 |
| LOU-NH91 | 0.613 | 0.6 | 0.604 | 0.511 | 0.765 | 0.704 | 0.739 | 0.79 | 0.717 | 0.356 | 0.312 | 0.351 | 0.281 | 0.668 | 0.629 | 0.693 | 0.525 |
| LU99A | 0.609 | 0.574 | 0.468 | 0.536 | 0.626 | 0.605 | 0.521 | 0.57 | 0.574 | 0.274 | 0.221 | 0.223 | 0.193 | 0.846 | 0.782 | 0.745 | 0.382 |
| LXF-289 | 0.219 | 0.232 | 0.222 | 0.235 | 0.886 | 0.762 | 0.792 | 0.835 | 0.741 | 0.557 | 0.724 | 0.697 | 0.5 | 0.984 | 1.07 | 1 | 0.917 |
| NCI-H23 | 0.681 | 0.715 | 0.811 | 0.438 | 0.539 | 0.614 | 0.463 | 0.533 | 0.51 | 0.224 | 0.236 | 0.183 | 0.146 | 0.858 | 0.622 | 1.02 | 0.461 |
| NCI-H322M | 0.257 | 0.257 | 0.226 | 0.275 | 1.12 | 0.892 | 0.904 | 1.07 | 1.02 | 0.893 | 0.824 | 0.462 | 0.305 | 1.07 | 1.16 | 1.09 | 1.07 |
| NCI-H358 | 0.15 | 0.163 | 0.161 | 0.119 | 0.582 | 0.606 | 0.616 | 0.618 | 0.351 | 0.326 | 0.267 | 0.24 | 0.224 | – | – | – | – |
| NCI-H441 | 0.574 | 0.654 | 0.421 | 0.324 | 0.762 | 0.672 | 0.631 | 0.714 | 0.601 | 0.424 | 0.367 | 0.313 | 0.242 | 0.592 | 0.628 | 0.571 | 0.412 |
| NCI-H522 | – | 0.864 | 0.841 | 0.956 | – | – | – | – | – | 1.01 | 1.07 | 1.31 | 0.959 | – | – | – | – |
| NCI-H650 | 0.437 | 0.423 | 0.465 | 0.488 | 0.738 | 0.79 | 0.764 | 0.712 | 0.818 | 0.75 | 0.7 | 0.838 | 0.611 | – | – | – | – |
| NCI-H661 | 0.732 | 0.849 | 0.71 | 0.392 | 1.03 | 0.905 | – | 1.01 | 0.971 | 1.01 | 0.92 | 0.975 | 0.219 | – | – | – | – |
| NCI-H1299 | – | – | – | – | 0.892 | 0.971 | 0.933 | 0.943 | 0.988 | – | – | – | – | 1.12 | 1.02 | 1.08 | 1.24 |
| NCI-H1395 | 0.418 | 0.377 | 0.408 | 0.413 | – | – | – | – | – | 0.606 | 0.648 | 0.665 | 0.508 | 1.62 | 1.17 | 1.03 | 0.831 |
| NCI-H1563 | 0.467 | 0.418 | 0.435 | 0.434 | 0.875 | 0.883 | 0.886 | 0.851 | 0.873 | 0.526 | 0.542 | 0.599 | 0.538 | – | – | – | – |
| NCI-H1623 | 0.58 | 0.646 | 0.63 | 0.604 | – | – | – | – | – | 0.534 | 0.449 | 0.397 | 0.307 | – | – | – | – |
| NCI-H1703 | – | – | – | – | 0.795 | 0.717 | 0.526 | 0.559 | 0.735 | – | – | – | – | 0.956 | 1.01 | 1.01 | 0.225 |
| NCI-H1793 | 0.319 | 0.361 | 0.407 | 0.247 | – | – | – | – | – | 0.387 | 0.161 | 0.385 | 0.119 | 0.352 | 0.416 | 0.313 | 0.365 |
| NCI-H2342 | 0.328 | 0.277 | 0.314 | 0.313 | – | – | – | – | – | 0.646 | 0.759 | 0.613 | 0.587 | – | – | – | – |
| SW 900 | 0.715 | 0.568 | 0.642 | 0.254 | – | – | – | – | – | 0.171 | 0.183 | 0.173 | 0.179 | – | – | – | – |
